Measured values: PMC7880688, “Hormone-sensitive lipase couples intergenerational sterol metabolism to reproductive success” (eLife, 2021)

Assays:
Assay type in all cases: biochemical
[1] = target: T1, His6-Hsl (Drosophila Hsl) (Drosophila melanogaster, UniProt A4UZQ8); assay: colorimetric free fatty acid release (NEFA kit); conditions: 0.3 mM substrate emulsified with PC/PI, 2% BSA, BTP buffer pH 7.5, 37°C, 30-60 min
T1 construct: Hsl open reading frame from cDNA RE52776 in pcDNA4/HisMax C, N-terminal His6 tag kept, COS-7 cell extract
T1 sequence (A4UZQ8 2-881): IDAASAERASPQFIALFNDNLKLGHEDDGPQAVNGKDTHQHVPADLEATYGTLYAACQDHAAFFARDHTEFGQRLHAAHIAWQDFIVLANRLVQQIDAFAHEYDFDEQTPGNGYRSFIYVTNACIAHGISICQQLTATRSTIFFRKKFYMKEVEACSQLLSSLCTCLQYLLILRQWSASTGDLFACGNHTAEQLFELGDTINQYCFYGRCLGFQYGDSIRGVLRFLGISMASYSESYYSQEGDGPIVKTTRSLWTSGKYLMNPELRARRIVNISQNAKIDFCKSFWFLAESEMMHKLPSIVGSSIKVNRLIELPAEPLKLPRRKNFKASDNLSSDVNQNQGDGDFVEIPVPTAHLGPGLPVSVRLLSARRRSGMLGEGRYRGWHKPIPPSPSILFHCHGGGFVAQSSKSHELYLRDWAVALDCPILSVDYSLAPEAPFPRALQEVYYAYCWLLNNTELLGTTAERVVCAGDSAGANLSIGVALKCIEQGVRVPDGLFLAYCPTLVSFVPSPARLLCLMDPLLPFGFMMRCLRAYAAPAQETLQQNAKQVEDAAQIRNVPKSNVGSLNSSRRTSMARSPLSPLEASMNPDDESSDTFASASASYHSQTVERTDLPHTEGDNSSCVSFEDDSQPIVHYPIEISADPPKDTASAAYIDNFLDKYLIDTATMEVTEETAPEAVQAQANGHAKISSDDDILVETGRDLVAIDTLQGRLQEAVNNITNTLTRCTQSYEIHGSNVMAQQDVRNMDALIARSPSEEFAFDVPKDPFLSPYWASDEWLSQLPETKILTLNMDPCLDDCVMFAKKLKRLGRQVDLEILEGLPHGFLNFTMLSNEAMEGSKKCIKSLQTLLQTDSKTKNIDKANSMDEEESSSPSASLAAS

[2] = target: T2, His6-MmHsl (murine Hsl) (Mus musculus, UniProt P54310); assay: colorimetric free fatty acid release (NEFA kit); conditions: 0.3 mM substrate emulsified with PC/PI, 2% BSA, BTP buffer pH 7.5, 37°C, 30-60 min
T2 construct: gene Lipe; N-terminal His6 tag kept, COS-7 cell extract; plasmid described previously (Lass et al., 2006)
T2 sequence (P54310 1-759): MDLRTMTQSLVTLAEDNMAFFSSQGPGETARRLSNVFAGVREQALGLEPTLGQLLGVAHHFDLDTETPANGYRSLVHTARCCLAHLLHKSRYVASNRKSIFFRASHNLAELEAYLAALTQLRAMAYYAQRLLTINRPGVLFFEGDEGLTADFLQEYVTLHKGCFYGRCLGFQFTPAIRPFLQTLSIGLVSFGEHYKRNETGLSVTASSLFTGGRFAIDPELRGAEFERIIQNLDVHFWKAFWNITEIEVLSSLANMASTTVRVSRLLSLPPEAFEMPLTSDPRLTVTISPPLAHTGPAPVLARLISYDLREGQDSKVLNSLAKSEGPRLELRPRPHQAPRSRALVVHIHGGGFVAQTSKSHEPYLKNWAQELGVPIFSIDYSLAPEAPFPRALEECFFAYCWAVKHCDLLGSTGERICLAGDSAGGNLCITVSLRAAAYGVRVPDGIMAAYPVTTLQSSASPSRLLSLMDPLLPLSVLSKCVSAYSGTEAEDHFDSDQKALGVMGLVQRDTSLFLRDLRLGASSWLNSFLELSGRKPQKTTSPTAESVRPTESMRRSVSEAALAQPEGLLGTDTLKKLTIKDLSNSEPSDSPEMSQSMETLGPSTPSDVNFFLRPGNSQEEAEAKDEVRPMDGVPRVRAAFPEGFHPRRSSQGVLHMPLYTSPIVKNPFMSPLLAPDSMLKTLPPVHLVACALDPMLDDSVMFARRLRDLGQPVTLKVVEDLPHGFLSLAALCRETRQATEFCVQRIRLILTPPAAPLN

[3] = target: T2, His6-MmHsl (murine Hsl); assay: release of labelled fatty acid, scintillation counting; conditions: 0.45 mM substrate emulsified with PC/PI, 5% BSA, BTP buffer pH 7.5, 37°C, 60 min; labelled compound (14C-cholesteryl oleate tracer)
[4] = target: T1, His6-Hsl (Drosophila Hsl); assay: as above; conditions: 0.45 mM substrate emulsified with PC/PI, 5% BSA, BTP buffer pH 7.5, 37°C, 60 min; labelled compound (14C-cholesteryl oleate tracer)

SMILES | colorimetric free fatty acid release (NEFA kit) [1] | colorimetric free fatty acid release (NEFA kit) [2] | release of labelled fatty acid, scintillation counting [3] | release of labelled fatty acid, scintillation counting [4]
CCCCCCCC/C=C\CCCCCCCC(=O)OCC(CO)OC(=O)CCCCCCC/C=C\CCCCCCCC (racemic) [DG 36:2, 1,2-dioleoyl-rac-glycerol] | Expression of fly His6-Hsl elevated cellular hydrolysis rates toward MG, DG, TG, and SE | Expression of His6-MmHsl increased cellular hydrolysis rates toward monoacylglycerol (MG), DG, TG, and SE |  | 
CCCCCCCC/C=C\CCCCCCCC(=O)O[C@H]1CC[C@@]2(C)C(=CC[C@H]3[C@@H]4CC[C@H]([C@H](C)CCCC(C)C)[C@@]4(C)CC[C@@H]32)C1 [CE 18:1, cholesteryl oleate] |  |  | Expression of His6-MmHsl increased cellular hydrolysis rates toward monoacylglycerol (MG), DG, TG, and SE | Expression of fly His6-Hsl elevated cellular hydrolysis rates toward MG, DG, TG, and SE
